# Assay results reported in patent US6358993B1, “Pharmaceutically active nitrogen ring compounds and methods of use thereof” (CeNes Pharmaceuticals, Inc., priority 1996, dated 2002).
# Counter-ions that a name gives are not always drawn.
# Experiments:
# DBA/2 mice = test: In vivo anticonvulsant activity in the DBA/2 mouse model (mouse audiogenic assay); conditions: 30 minutes before auditory stimulus, inhibition relative to vehicle
# Description: As discussed above, preferred compounds of the invention in a standard anticonvulsant in vivo audiogenic test, such as the audiogenic mouse assay of Example 48 which follows, where DBA/2 mice about 20-23 days old are injected intraperitoneally with a test compound 30 minutes prior to being placed in a bell jar with exposure to auditory stimulus of 12 KHz sine wave at 110-120 db. References herein in vivo “audiogenic assay” are intended to refer to that protocol. […] As discussed above, activity in the audiogenic assay has been recognized as indicative that a test compound has neuroprotective properties. See, e.g., M. Tricklebank et al., European Journal of Pharmacology, supra; T. Seyfried, Federation Proceedings, supra.
# In vivo Anticonvulsant Activity in the DBA/2 Mouse Model (Mouse Audiogenic Assay)
# Compounds were tested for their effectiveness in preventing seizures in DBA/2 mice which have a unique sensitivity to auditory stimulation. Exposure to loud high-frequency sounds can trigger seizure activity in these animals. This sensitivity develops from postnatal day 12 and peaks around day 21 and slowly diminishes as the animals mature. The unusual response to auditory stimulation in this strain of mouse is believed to be due to a combination of early myelination (causing an unusually low excitatory threshold) and delayed development of inhibitory mechanisms.
# Mice were injected intraperitoneally with the compound specified in Table I below or with vehicle control, 30 minutes prior to being placed in a bell jar and turning on the auditory stimulus (12 KHz sine wave at 110-120 db). Administered doses are specified in Table I as milligram of compound per kilogram bodyweight of mouse. The auditory stimulus was left on for 60 seconds and mice reactions were timed and recorded. “FB” refers to free base.
# mouse audiogenic tests = conditions: in vivo; cited from earlier work
# in vivo models of stroke = conditions: cited from earlier work
# [1] = in vivo; cited from earlier work
Molecule,Audiogenic Response % Inhib. (DBA/2 mice; dose 10 mg/kg i.p.) [%],Audiogenic Response % Inhib. (DBA/2 mice; dose 20 mg/kg i.p.) [%],also measured
"N=C(Nc1cc(Br)ccc1Br)N1CCCc2ccc(C(F)(F)F)cc21 (as salt: hydrochloride) [Example 35, N-(2,5-dibromophenyl)-(7-trifluoromethyl-1,2,3,4-tetrahydroquinolinyl)carboximidamide Hydrochloride]",,,melting point: 201 to 202 °C
"N=C(N)N1Cc2ccccc2CCc2ccccc21 (as salt: hydrochloride) [Example 41, 5,6,11,12-tetrahydrodibenz[b,f]azocin-carboximidanmide.hydrochloride]",,,melting point: 238 to 240 °C
"N=C(Nc1cccc2ccccc12)N1CCc2ccccc21 [Example 2, N-(1-Naphthyl)-1-indolinylcarboximidamide]",100,,Audiogenic Response % Inhib. (DBA/2 mice; dose 2 mg/kg i.p.): 82%
"CS(=O)(=O)O.N=C(Nc1ccc(OCc2ccccc2)cc1)N1CCc2ccccc21 [Example 4, N-(4-Benzyloxyphenyl)-1-indolinylcarboximidamide.mesylate]",,32,
"COc1ccc(NC(=N)N2CCc3ccccc32)c2ccccc12.CS(=O)(=O)O [Example 5, N-(4-Methoxynaphthyl)-1-indolinylcarboxidamide.mesylate]",68,87,Audiogenic Response % Inhib. (DBA/2 mice; dose 5 mg/kg i.p.): 50%
"N=C(Nc1ccc(Cl)c(Cl)c1)N1CCc2ccccc21 [Example 6, N-(3,4-Dichlorophenyl)-1-indolinylcarboximidamide]",41,83,
"CCc1cccc2c1N(C(=N)Nc1cccc3ccccc13)CC2 [Example 9, N-(1-Naphthyl)-1-(7-ethyl)-indolinylcarboximidaide]",,28,
"Cl.N=C(Nc1cccc(Cl)c1Cl)N1CCc2ccccc21 [Example 11, N-(2,3-dichiorophenyl)-1-indolinylcarboximidamide.HCl]",55,,
"Cc1cccc(NC(=N)N2CCc3ccccc32)c1C.Cl [Example 12, N-(2,3-dimethylphenyl)-1-indolinylcarboximidamide.HCl]",88,,Audiogenic Response % Inhib. (DBA/2 mice; dose 2 mg/kg i.p.): 23%; Audiogenic Response % Inhib. (DBA/2 mice; dose 5 mg/kg i.p.): 67%
"Cl.N=C(Nc1cccc2c1CCCC2)N1CCc2ccccc21 [Example 13, N-(5,6,7,8-tetrahydro-1-naphthyl)-1-indolinylcarboximidamide.HCl]",48,80,
"CCc1ccc(Cl)c(NC(=N)N2CCCc3ccc(C(F)(F)F)cc32)c1.Cl [Example 19, N-(2-chloro-5-ethylphenyl)-[(7-trifluoromethyl)-1,2,3,4-tetrahydroquinolinyl]carboximidamiide.HCl]",44,91,
Cl.N=C(Nc1cccc2ccccc12)N1CCCc2ccc(C(F)(F)F)cc21 [Example 20],,,Audiogenic Response % Inhib. (DBA/2 mice; dose 4 mg/kg i.p.): 13%
"Cl.N=C(Nc1cccc2ccccc12)N1CCCc2ccccc21 [Example 21, N-(1-naphthyl)-(1,2,3,4-tetrahydroquinolinyl)carboximidamide.HCl]",,,Audiogenic Response % Inhib. (DBA/2 mice; dose 1 mg/kg i.p.): 13%; Audiogenic Response % Inhib. (DBA/2 mice; dose 2 mg/kg i.p.): 62%; Audiogenic Response % Inhib. (DBA/2 mice; dose 4 mg/kg i.p.): 88%
"Cl.N=C(Nc1cccc(-c2ccccc2)c1)N1Cc2cccc3cccc1c23 [Example 22, N-(3-biphenyl)-1-(benz[cd]indolinyl)carboximdamide.HCl]",23,,
"Cc1ccccc1NC(=N)N1Cc2cccc3cccc1c23.Cl [Example 23, N-(2-tolyl)-1-(benz[cd]indolinyl)carboximidamnide.HCl]",,,Audiogenic Response % Inhib. (DBA/2 mice; dose 1 mg/kg i.p.): 53%; Audiogenic Response % Inhib. (DBA/2 mice; dose 2 mg/kg i.p.): 61%; Audiogenic Response % Inhib. (DBA/2 mice; dose 4 mg/kg i.p.): 95%
"Cc1ccc(C)c(NC(=N)N2Cc3cccc4cccc2c34)c1.Cl [Example 25, N-(2,5-dimethylphenyl)-1-benz[cd]indolinylcarboximidamide.HCl]",76,,Audiogenic Response % Inhib. (DBA/2 mice; dose 5 mg/kg i.p.): 59%
"Cc1ccc2c(c1)CCCN2C(=N)Nc1cccc2ccccc12.Cl [Example 33, N-(1-naphthyl)-(6-methyl-1,2,3,4-tetrahydroquinolinyl)carboximidamide Hydrochloride]",,,Audiogenic Response % Inhib. (DBA/2 mice; dose 4 mg/kg i.p.): 62%
C[C@]12N[C@H](Cc3ccccc31)c1ccccc12 [MK-801],,,activity in mouse audiogenic tests (mouse audiogenic tests): good activity; results in in vivo models of stroke (in vivo models of stroke): good results; toxicity [1]: has shown toxicity
"N=C(Nc1cccc2ccccc12)N1CCc2ccccc2C1 [N-(1-naphthyl)-1,2,3,4-tetrahydroisoquinolinyl)carboximidamide]",,41,
N-(2-biphenyl)-1-indolinylcarboximidamide.HCl [Example 14],,56,
N-(5-Acenaphthyl)-1-(5-bromo)-indolinylcarboximidamide [Example 8],,11,
N-(5-Acenaphthyl)-1-(5-methoxy)-1-indolinylcarboximidamide.HCl [Example 7],21,,
